Source: patent publication US20240101548A1, “HYDROXAMATE COMPOUND, PREPARATION METHOD THEREFOR AND APPLICATION THEREOF” (SHENZHEN CHIPSCREEN BIOSCIENCES CO., LTD., priority 2020, published 2024)
Read-outs that look alike come from different tables or passages of the source.

Legend:
Format in all cases: cell-based, human
[1] = system: IL-10-induced JAK1/TYK2 signal pathway; experiment: IL-10-induced JAK1/TYK2 signal pathway STAT3-Luc reporter gene assay in U2OS cells; conditions: U2OS cells, STAT3-Luc reporter, IL-10 10 ng/mL, read-out: Half inhibition dose (IC50) on IL-10-induced JAK1/TYK2 signal pathway
Procedure, shortened: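 Luciferase read-out (560 nm) corrected by GFP signal (Ex485/Em520) gives IL-10 pathway activity, and IC50 is derived from inhibition rates. Cells were U2OS transfected with IL-10R1 plus STAT3-Luc reporter, pretreated 6 h with 0.1–300 nM compound, then stimulated 24 h with IL-10 at 10 ng/mL.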

[2] = system: EPO-induced JAK2 signal pathway; experiment: EPO-induced proliferation of UT-7 cells (JAK2 signal); conditions: Homo sapiens, UT7; UT-7 cell proliferation, EPO 10 ng/mL, 72 hours; read-out: Inhibition activity IC50 on EPO-induced JAK2 signal pathway
Procedure, shortened: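 […] was derived from inhibition rates across doses, scaled between wells lacking compound and cytokine (0) and EPO without compound (100), using alamarBlue fluorescence at Ex530/Em590. Compound (final 0-10000 nM) and 10 ng/mL EPO were given to UT-7 cells at 15000 per well for 72 h at 37° C.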

[3] = system: IL-2-induced JAK1/JAK3 signal pathway; experiment: IL-2-induced proliferation of KHYG-1 cells (JAK1/JAK3 signal); conditions: Homo sapiens, read-out: Inhibition activity IC50 on IL-2-induced JAK1/JAK3 signal pathway
Procedure, shortened: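 Controls were wells lacking both compound and cytokine (0%) and compound-free IL-2 wells (100%). C50 was calculated from inhibition rates across doses.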

[4] = KHYG-1 cell proliferation, IL-2 10 ng/mL, 72 hours

Row | Structure (SMILES) | IC50 ([1]; Homo sapiens, U2OS) | IC50 [1] | IC50 [2] | IC50 [3, 4] | IC50 ([1]; Homo sapiens) | IC50 ([3]; KHYG-1, 72 h)
1 | CCONC(=O)c1cnc(Nc2cc(C)nc(C)n2)cc1Nc1ccc(N2CCOCC2)cc1N(C)S(C)(=O)=O [Example 134, 6-((2,6-dimethylpyrimidin-4-yl)amino)-N-ethoxy-4-((2-(N-methylmethanesulfonamido)-4-morpholinophenyl)amino)nicotinamide] | 0.00277 µM |  | > 10 µM | > 10 µM |  | 
2 | CCONC(=O)c1cnc(Nc2cnccn2)cc1Nc1ccc(N2CCOCC2)cc1N(C)S(C)(=O)=O [Example 136, N-ethoxy-4-((2-(N-methylmethanesulfonamido)-4-morpholinophenyl)amino)-6-(pyrazin-2-ylamino)nicotinamide] | 0.00249 µM |  | > 10 µM | > 10 µM |  | 
3 | CCONC(=O)c1cnc(Nc2cccc(C)n2)cc1Nc1ccc(C2CC2)cc1N(C)S(C)(=O)=O [Example 146, 4-((4-cyclopropyl-2-(N-methylmethanesulfonamido)phenyl)amino)-N-ethoxy-6-((6-methylpyridin-2-yl)amino)nicotinamide] |  | 0.00252 µM | > 10 µM | > 10 µM |  | 
4 | CCONC(=O)c1cnc(Nc2cccnn2)cc1Nc1ccc(Cl)cc1N(C)S(C)(=O)=O [Example 151, 4-((4-chloro-2-(N-methylmethanesulfonamido)phenyl)amino)-N-ethoxy-6-(pyridazin-3-ylamino)nicotinamide] | 0.00207 µM |  | > 10 µM | > 10 µM |  | 
5 | CCONC(=O)c1cnc(Nc2cccnn2)cc1Nc1ccc(C2CC2)cc1N(C)S(C)(=O)=O [Example 153, 4-((4-cyclopropyl-2-(N-methylmethanesulfonamido)phenyl)amino)-N-ethoxy-6-(pyridazin-3-ylamino)nicotinamide] | 0.00151 µM |  | > 10 µM | > 10 µM |  | 
6 | C#Cc1ccc(Nc2cc(Nc3ccc(C4CC4)cn3)ncc2C(=O)NOCC)c(N(C)S(C)(=O)=O)c1 [Example 154, 6-((5-cyclopropylpyridin-2-yl)amino)-N-ethoxy-4-((4-ethynyl-2-(N-methylmethanesulfonamido)phenyl)amino)nicotinamide] | 0.00152 µM |  | > 10 µM | > 10 µM |  | 
7 | CCONC(=O)c1cnc(Nc2ccc(C3CC3)cn2)cc1Nc1ccc(OC)cc1N(C)S(C)(=O)=O [Example 155, 6-((5-cyclopropylpyridin-2-yl)amino)-N-ethoxy-4-((4-methoxy-2-(N-methylmethanesulfonamido)phenyl)amino)nicotinamide] | 0.00179 µM |  | > 10 µM | > 10 µM |  | 
8 | CCONC(=O)c1cnc(NC(=O)C2CC2)cc1Nc1cccc(-c2ncn(C)n2)c1OC [Example 166, 6-(cyclopropylcarboxamido)-N-ethoxy-4-((2-methoxy-3-(1-methyl-1H-1,2,4-triazol-3-yl)phenyl)amino)nicotinamide] | 0.00151 µM |  | > 10 µM | > 10 µM |  | 
9 | CCONC(=O)c1cnc(Nc2cnccn2)cc1Nc1cc(F)c(C2CC2)cc1N(C)S(C)(=O)=O [Example 167, 4-((4-cyclopropyl-5-fluoro-2-(N-methylmethanesulfonamido)phenyl)amino)-N-ethoxy-6-(pyrazin-2-ylamino)nicotinamide] | 0.00151 µM |  | > 10 µM | > 10 µM |  | 
10 | CCONC(=O)c1cnc(Nc2ccn(C)n2)cc1Nc1cc(F)c(C2CC2)cc1N(C)S(C)(=O)=O [Example 171, 4-((4-cyclopropyl-5-fluoro-2-(N-methylmethanesulfonamido)phenyl)amino)-N-ethoxy-6-((1-methyl-1H-pyrazol-3-yl)amino)nicotinamide] | 0.00154 µM |  | > 10 µM | > 10 µM |  | 
11 | CCONC(=O)c1cnc(Nc2cc(C)nc(C)n2)cc1Nc1ccccc1N(C)S(=O)(=O)C1CC1 [Example 173, 6-((2,6-dimethylpyrimidin-4-yl)amino)-N-ethoxy-4-((2-(N-methylcyclopropylsulfonamido)phenyl)amino)nicotinamide] |  |  | > 10 µM |  | 0.000424 µM | > 10 µM

Continued by falling IC50 ([1]; Homo sapiens, U2OS), values first:

Row | IC50 ([1]; Homo sapiens, U2OS) | IC50 [1] | Structure (SMILES) | IC50 [2] | IC50 [3, 4] | IC50 ([1]; Homo sapiens) | IC50 ([3]; KHYG-1, 72 h)
12 | 0.0015 µM |  | CCONC(=O)c1cnc(Nc2nc(C)cs2)cc1Nc1cc(F)c(C2CC2)cc1N(C)S(C)(=O)=O [Example 170, 4-((4-cyclopropyl-5-fluoro-2-(N-methylmethanesulfonamido)phenyl)amino)-N-ethoxy-6-((4-methylthiazol-2-yl)amino)nicotinamide] | > 10 µM | > 10 µM |  | 
13 | 0.00149 µM |  | CCONC(=O)c1cnc(Nc2nc(C)cs2)cc1Nc1ccc(C2CC2)cc1N(C)S(C)(=O)=O [Example 157, 4-((4-cyclopropyl-2-(N-methylmethanesulfonamido)phenyl)amino)-N-ethoxy-6-((4-methylthiazol-2-yl)amino)nicotinamide] | > 10 µM | > 10 µM |  | 
14 | 0.0014 µM |  | CCONC(=O)c1cnc(NC(=O)C2CC2)cc1Nc1ccc(C2CC2)cc1N(C)S(C)(=O)=O [Example 139, 6-(cyclopropylcarboxamido)-4-((4-cyclopropyl-2-(N-methylmethanesulfonamido)phenyl)amino)-N-ethoxy nicotinamide] | > 10 µM | > 10 µM |  | 
15 | 0.001 µM |  | CCONC(=O)c1cnc(Nc2ncc(C)s2)cc1Nc1ccc(C2CC2)cc1N(C)S(C)(=O)=O [Example 156, 4-((4-cyclopropyl-2-(N-methylmethanesulfonamido)phenyl)amino)-N-ethoxy-6-((5-methylthiazol-2-yl)amino)nicotinamide] | > 10 µM | > 10 µM |  | 
16 | 0.000969 µM |  | C#Cc1ccc(Nc2cc(Nc3ccc(F)cn3)ncc2C(=O)NOCC)c(N(C)S(C)(=O)=O)c1 [Example 144, N-ethoxy-4-((4-ethynyl-2-(N-methylmethanesulfonamido)phenyl)amino)-6-(5-fluoropyridin-2-ylamino)nicotinamide] | > 10 µM | > 10 µM |  | 
17 | 0.000907 µM |  | CCONC(=O)c1cnc(Nc2ccc(C)nn2)cc1Nc1ccc(C2CC2)cc1N(C)S(C)(=O)=O [Example 159, 4-((4-cyclopropyl-2-(N-methylmethanesulfonamido)phenyl)amino)-N-ethoxy-6-((6-methylpyridazin-3-yl)amino)nicotinamide] | > 10 µM | > 10 µM |  | 
18 | 0.000601 µM |  | CCONC(=O)c1cnc(Nc2ccccn2)cc1Nc1ccc(C2CC2)cc1N(C)S(C)(=O)=O [Example 138, 4-((4-cyclopropyl-2-(N-methylmethanesulfonamido)phenyl)amino)-N-ethoxy-6-(pyridin-2-ylamino)nicotinamide] | > 10 µM | > 10 µM |  | 
19 | 0.000496 µM |  | C#Cc1ccc(Nc2cc(Nc3cccc(F)n3)ncc2C(=O)NOCC)c(N(C)S(C)(=O)=O)c1 [Example 143, N-ethoxy-4-((4-ethynyl-2-(N-methylmethanesulfonamido)phenyl)amino)-6-(6-fluoropyridin-2-ylamino)nicotinamide] | > 10 µM | > 10 µM |  | 
20 | 0.000489 µM |  | C#Cc1ccc(Nc2cc(Nc3ccc(OC)cn3)ncc2C(=O)NOCC)c(N(C)S(C)(=O)=O)c1 [Example 141, N-ethoxy-4-((4-ethynyl-2-(N-methylmethanesulfonamido)phenyl)amino)-6-(5-methoxypyridin-2-ylamino)nicotinamide] | > 10 µM | > 10 µM |  | 
21 | 0.000442 µM |  | CCONC(=O)c1cnc(Nc2ccn(C)n2)cc1Nc1ccc(C2CC2)cc1N(C)S(C)(=O)=O [Example 160, 4-((4-cyclopropyl-2-(N-methylmethanesulfonamido)phenyl)amino)-N-ethoxy-6-((1-methyl-1H-pyrazol-3-yl)amino)nicotinamide] | > 10 µM | > 10 µM |  | 
22 | 0.000438 µM |  | C#Cc1ccc(Nc2cc(Nc3ccccn3)ncc2C(=O)NOCC)c(N(C)S(C)(=O)=O)c1 [Example 162, N-ethoxy-4-((4-ethynyl-2-(N-methylmethanesulfonamido)phenyl)amino)-6-(pyridin-2-ylamino)nicotinamide] | > 10 µM | > 10 µM |  | 
23 | 0.00041 µM |  | C#Cc1ccc(Nc2cc(Nc3ccc(C#N)cn3)ncc2C(=O)NOCC)c(N(C)S(C)(=O)=O)c1 [Example 142, 6-(5-cyanopyridin-2-ylamino)-N-ethoxy-4-((4-ethynyl-2-(N-methylmethanesulfonamido)phenyl)amino)nicotinamide] | > 10 µM | > 10 µM |  | 
24 | 0.000301 µM |  | CCONC(=O)c1cnc(Nc2cnccn2)cc1Nc1ccc(C2CC2)cc1N(C)S(C)(=O)=O [Example 145, 4-((4-cyclopropyl-2-(N-methylmethanesulfonamido)phenyl)amino)-N-ethoxy-6-(pyrazin-2-ylamino)nicotinamide] | > 10 µM | > 10 µM |  | 
